The record followed here is patent publication US20040235906A1, “Substituted amine derivatives and their use as monoamine neurotransmitter re-up-take inhibitors” (priority 2001, published 2004).

Where a name gives a salt, the structure may show the parent alone. Read-outs that look alike come from different tables or passages of the source.

The target in data set [1] is T1, reuptake of dopamine(DA) in synaptosomes (Rattus norvegicus, UniProt P23977).
T1 construct: in synaptosomes as described in WO 97/16451; from tissue
T1 sequence (P23977 whole entry): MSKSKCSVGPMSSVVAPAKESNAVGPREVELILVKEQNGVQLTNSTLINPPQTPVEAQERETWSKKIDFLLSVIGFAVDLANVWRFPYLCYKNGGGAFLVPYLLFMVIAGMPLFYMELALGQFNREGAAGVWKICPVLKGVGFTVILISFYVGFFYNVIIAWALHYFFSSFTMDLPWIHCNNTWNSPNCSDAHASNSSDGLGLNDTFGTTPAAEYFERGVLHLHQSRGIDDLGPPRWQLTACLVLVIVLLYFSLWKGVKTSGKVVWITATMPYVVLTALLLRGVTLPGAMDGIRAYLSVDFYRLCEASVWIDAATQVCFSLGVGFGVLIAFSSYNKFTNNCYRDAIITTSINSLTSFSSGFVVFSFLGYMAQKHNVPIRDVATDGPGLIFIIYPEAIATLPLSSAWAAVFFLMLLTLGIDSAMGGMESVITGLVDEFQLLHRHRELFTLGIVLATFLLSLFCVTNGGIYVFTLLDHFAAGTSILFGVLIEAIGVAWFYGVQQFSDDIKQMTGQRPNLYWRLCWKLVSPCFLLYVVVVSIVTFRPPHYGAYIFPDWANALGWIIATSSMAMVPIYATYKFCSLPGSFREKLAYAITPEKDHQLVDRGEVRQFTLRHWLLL
The data set can be described thus: Inhibition of dopamine (DA) reuptake in synaptosomes. Format: biochemical. As to the method:
(§1) A number of compounds were tested for their ability to inhibit the reuptake of the monoamine neurotransmitters dopamine(DA) noradrenaline(NA) and serotonine(5-HT) in synaptosomes as described in WO 97/16451.
(§2) The test values are given as IC50 (the concentration (μM) of the test substance which inhibits the specific binding of ^3H-DA, ^3H-NA, or ^3H-5-HT by 50%).

For data set [2], the target named is T2, reuptake of serotonine(5-HT) in synaptosomes (Rattus norvegicus, UniProt P31652).
T2 construct: in synaptosomes as described in WO 97/16451; from tissue
T2 sequence (P31652 whole entry): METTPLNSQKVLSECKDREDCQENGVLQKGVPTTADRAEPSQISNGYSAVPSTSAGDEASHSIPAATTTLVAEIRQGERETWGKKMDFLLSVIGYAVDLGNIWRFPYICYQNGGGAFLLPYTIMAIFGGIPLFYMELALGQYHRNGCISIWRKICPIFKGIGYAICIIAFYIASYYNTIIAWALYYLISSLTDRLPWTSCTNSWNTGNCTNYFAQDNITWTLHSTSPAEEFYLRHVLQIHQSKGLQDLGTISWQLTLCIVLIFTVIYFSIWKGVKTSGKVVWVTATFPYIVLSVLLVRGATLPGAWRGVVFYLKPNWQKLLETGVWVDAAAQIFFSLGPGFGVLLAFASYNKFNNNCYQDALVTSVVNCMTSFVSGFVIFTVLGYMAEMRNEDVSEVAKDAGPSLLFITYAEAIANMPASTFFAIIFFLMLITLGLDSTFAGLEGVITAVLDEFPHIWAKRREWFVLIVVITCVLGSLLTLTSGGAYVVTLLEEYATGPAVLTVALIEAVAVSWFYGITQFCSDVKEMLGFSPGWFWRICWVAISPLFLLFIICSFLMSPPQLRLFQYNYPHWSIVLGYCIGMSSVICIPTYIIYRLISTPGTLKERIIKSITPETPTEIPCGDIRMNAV
Put plainly: Inhibition of serotonine (5-HT) reuptake in synaptosomes. In kind it is biochemical. Here is the method: as §1, §2

[3] abbreviates: synaptosomes, 3H-DA, read-out: DA-uptake IC50.

As a reminder, the IC50 is the concentration that inhibits the measured activity by half. Turning to `CN1C2CCC1[C@H](COc1ccc(Cl)c(Cl)c1)[C@@H](c1ccc(Cl)c(Cl)c1)C2` (stereo partly drawn) [Compound 15a, (2R,3S)-2-(3,4-Dichloro-phenoxymethyl)-3-(3,4-dichloro-phenyl)-8-methyl-8-aza-bicyclo[3.2.1]octane], the figures for the IC50 in data set [1] and in data set [2] were 15 nM and 20 nM, respectively. As usually defined, the melting point is the temperature, or range, at which the solid turns liquid. In turn, `CC(C)[C@@H]1CC2CCC([C@@H]1COc1ccc(Cl)c(Cl)c1)N2C` (stereo partly drawn) (as salt: fumaric acid salt) [Compound 16, (2R,3S)-2-(3,4-Dichloro-phenoxymethyl)-3-(2-propyl)-8-methyl-8-aza-bicyclo[3.2.1]octane fumaric acid salt] returned a melting point of 152.3 to 154.5 °C. `CC(C)[C@@H]1CC2CCC([C@@H]1COc1ccc(Cl)c(Cl)c1)N2C` (stereo partly drawn) [Compound 16, (2R,3S)-2-(3,4-Dichloro-phenoxymethyl)-3-(2-propyl)-8-methyl-8-aza-bicyclo[3.2.1]octane fumaric acid salt]: the values for the IC50 in data set [1] (setting [3]) and in data set [2] were greater than 1000 nM and 0.72 nM, respectively. As to `CN1C2CCC1[C@H](COc1ccc(Cl)c(Cl)c1)[C@@H](c1ccccc1)C2` (stereo partly drawn) [Compound 13a, (2R,3S)-2-(3,4-Dichlorophenoxymethyl)-8-methyl-3-phenyl-8-aza-bicyclo[3.2.1]octane], the half-inhibitory concentration (IC50) in data set [1] stood at 540 nM; in data set [2], 0.4 nM. For the molecule `CC(C)C1CC2CCC(N2)C1COc1ccc(Cl)c(Cl)c1` [Compound of Example 10, (2R,3S)-2-(3,4-Dichloro-phenoxymethyl)-3-(2-propyl)-8-H-8-aza-bicyclo[3.2.1]octane fumaric acid salt], the concentration for half-maximal inhibition (IC50) in data set [1] (setting [3]) stood at 260 nM; in data set [2], 9 nM. Molecule `CN1C2CCC1[C@H](COc1ccc(Cl)c(Cl)c1)CC2` (some centres unmarked) (as salt: fumarate) showed a melting point of 176 to 180 °C. `CN1C2CCC1[C@H](COc1ccc(Cl)c(Cl)c1)[C@@H](c1ccc(Cl)c(Cl)c1)C2` (stereo partly drawn) (as salt: fumaric acid salt) [Compound 15a, (2R,3S)-2-(3,4-Dichloro-phenoxymethyl)-3-(3,4-dichloro-phenyl)-8-methyl-8-aza-bicyclo[3.2.1]octane] gave a melting point of 215.1 to 217.2 °C.
